In BindingDB's records for doi:10.1021/jm011020u (Instituto De Quimica Medica (Csic), 2002) one finds IC50 data, which are given here for 26 compounds.

Some results are limits rather than exact numbers.

The IC50 is the concentration at which inhibition is half-maximal. Lower therefore signals greater potency.

For experiment [1], the target named is T1, Glycogen synthase kinase-3 beta [7-25] (Oryctolagus cuniculus, UniProt G1T8E2).
T1 construct: 7-25
The experiment in a line: GSK-3 Inhibition Assay. To be noted: 37 °C.
Description: 32P incorporation was measured with a scintillation counter. The GSK-3 beta activity was expressed in picomoles of phosphate incorporated in GS-1 per 20 min or in percentage of maximal activity.

In experiment [2] the target is Protein kinase C beta type (Rattus norvegicus, UniProt P68403). The experiment in a line: PKC Inhibition Assay. To be noted: pH 7.5; 37 °C. The protocol: Kinase activities were assayed in buffers containing substrate, enzyme, and inhibitor at 37 °C in the presence of 10 uM ATP/ [gamma-32P] ATP. 32P incorporation was measured with a scintillation counter. The IC50 is the inhibitor concentration at which a 50% of enzyme inhibition occurs.
Sequence of Protein kinase C beta type (P68403 whole entry): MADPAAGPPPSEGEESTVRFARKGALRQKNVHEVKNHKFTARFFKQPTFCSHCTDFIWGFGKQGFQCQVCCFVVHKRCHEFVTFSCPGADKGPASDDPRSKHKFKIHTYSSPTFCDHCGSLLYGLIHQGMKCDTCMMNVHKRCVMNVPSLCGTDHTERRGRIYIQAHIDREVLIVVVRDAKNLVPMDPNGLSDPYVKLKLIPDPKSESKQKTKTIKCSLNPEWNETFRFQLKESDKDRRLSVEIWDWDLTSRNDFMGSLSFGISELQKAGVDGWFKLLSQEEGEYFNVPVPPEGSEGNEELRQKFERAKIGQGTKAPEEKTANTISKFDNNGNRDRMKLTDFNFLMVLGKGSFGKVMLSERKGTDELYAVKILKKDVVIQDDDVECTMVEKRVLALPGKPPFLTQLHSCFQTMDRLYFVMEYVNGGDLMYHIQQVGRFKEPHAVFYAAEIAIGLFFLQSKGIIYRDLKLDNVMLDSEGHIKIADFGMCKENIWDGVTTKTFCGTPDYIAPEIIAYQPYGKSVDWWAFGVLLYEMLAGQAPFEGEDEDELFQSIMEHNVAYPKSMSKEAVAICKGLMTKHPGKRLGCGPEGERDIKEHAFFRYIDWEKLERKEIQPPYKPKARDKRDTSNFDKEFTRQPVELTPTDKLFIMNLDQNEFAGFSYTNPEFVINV

The target in experiment [3] is cAMP-dependent protein kinase catalytic subunit alpha (Bos taurus, UniProt P00517). The experiment in a line: Kinase Inhibition Assay. To be noted: pH 7.5; 37 °C.

Turning to `O=c1sn(-c2ccccc2)c(=S)n1-c1ccccc1` [2,4-diphenyl-5-oxo-1,2,4-thiadiazolidine-3-thione], the IC50 in experiment [1] was 8 µM.
On to `Cn1sc(=O)n(-c2cccc(Br)c2)c1=O` [4-(3-Bromophenyl)-2-methyl-1,2,4-thiadiazolidine-3,5-dione], for which the IC50 in experiment [1] (pH 7.5) came to 4 µM.
In the case of `CCn1c(=O)sn(C)c1=O` [4-Ethyl-2-methyl-1,2,4-thiadiazolidine-3,5-dione], in experiment [1] (pH 7.5), the IC50 came to 5 µM.
In experiment [1], `CCNC(=O)/N=c1\sn(CC)c(=O)n1-c1ccccc1` [ethyl-(2-ethyl-3-oxo-4-phenyl-1,2,4-thiadiazolidin-5-ylidene)urea] gave an IC50 of 75 µM.
For `Cn1sc(=O)n(Cc2ccccc2)c1=O` [4-Benzyl-2-methyl-1,2,4-thiadiazolidine-3,5-dione], the IC50 in experiment [2] and in experiment [3] was above 100 µM in each case.
Take `Cn1sc(=O)n(-c2ccc(F)cc2)c1=O` [4-(4-Fluorophenyl)-2-methyl-1,2,4-thiadiazolidine-3,5-dione]: in experiment [1], half-maximal inhibition (IC50) required 4 µM.
On the same count and under the same terms, the result for `CCn1sc(=O)n(CC)c1=S` [2,4-diethyl-3-thioxo-1,2,4-thiadiazolidin-5-one] reads 20 µM.
In experiment [1], `CCn1sc(=N)n(-c2ccccc2)c1=O` [2-Ethyl-3-oxo-4-phenyl-1,2,4-thiadiazolidin-5-imine] returned a concentration for half-maximal inhibition (IC50) of 65 µM. This IC50 lies about 3.2-fold higher than the previous one.
For `Cn1sc(=O)n(C2CCCCC2)c1=O` [4-Cyclohexyl-2-methyl-1,2,4-thiadiazolidine-3,5-dione], the IC50 in experiment [1] (pH 7.5) was above 100 µM.
For the compound `Cn1sc(=O)n(-c2ccc(Cl)cc2)c1=O` [4-(4-Chlorophenyl)-2-methyl-1,2,4-thiadiazolidine-3,5-dione], in experiment [1], the IC50 turned out to be 4 µM.
In experiment [1] (pH 7.5), `Cn1sc(=O)n(-c2ccc(Br)cc2)c1=O` [4-(4-Bromophenyl)-2-methyl-1,2,4-thiadiazolidine-3,5-dione] showed an IC50 of 3 µM.
For the compound `Cn1sc(=O)n(-c2cccc3ccccc23)c1=O` [2-methyl-4-(1-naphthyl)-1,2,4-thiadiazolidine-3,5-dione], the IC50 in experiment [1] is 3 µM.
Compound `O=c1sn(Cc2ccccc2)c(=O)n1Cc1ccccc1` [2,4-Dibenzyl-1,2,4-thiadiazolidine-3,5-dione] registered an IC50 in experiment [1] (pH 7.5) of 10 µM.
Consider `Cn1sc(=O)n(-c2ccccc2)c1=O` [2-methyl-4-phenyl-1,2,4-thiadiazolidine-3,5-dione], for which the midpoint of inhibition in experiment [1] (pH 7.5), the IC50, lay at 2 µM.
The compound `Cc1ccc(-n2c(=O)sn(C)c2=O)cc1` [4-(4-Methylphenyl)-2-methyl-1,2,4-thiadiazolidine-3,5-dione] returned an IC50 in experiment [1] of 5 µM.
The same measure, in the same setting: the result for `Cn1sc(=O)n(-c2ccc(C(F)(F)F)cc2)c1=O` [2-methyl-4-[4-(trifluoromethyl)phenyl]-1,2,4-thiadiazolidine-3,5-dione] reads 6 µM.
As to `CCn1c(=O)sn(C(C)C)c1=O` [4-ethyl-2-(propan-2-yl)-1,2,4-thiadiazolidine-3,5-dione], the IC50 in experiment [1] (pH 7.5) worked out at 35 µM.
For `CCCn1sc(=O)n(CC)c1=O` [4-Ethyl-2-propyl-1,2,4-thiadiazolidine-3,5-dione], inhibition in experiment [1] (pH 7.5) was half-maximal at 10 µM (IC50). This IC50 is about 3.5-fold lower than that of the compound before.
With `CCn1sc(=O)n(Cc2ccccc2)c1=S` [4-Benzyl-2-ethyl-5-oxo-1,2,4-thiadiazolidine-3-thione], half-maximal inhibition in experiment [1] (IC50) required 6 µM. In other words, the single-digit micromolar range.
Regarding `CCn1sc(=O)n(CC)c1=O` [2,4-Diethyl-1,2,4-thiadiazolidine-3,5-dione], the IC50 in experiment [1] (pH 7.5) was determined as 25 µM.
In experiment [1] (pH 7.5), `Cn1sc(=O)n(-c2ccccc2Br)c1=O` [4-(2-Bromophenyl)-2-methyl-1,2,4-thiadiazolidine-3,5-dione] came in with an IC50 of 6 µM.
`O=c1sn(Cc2ccccc2)c(=S)n1Cc1ccccc1` [2,4-Dibenzyl-5-oxo-1,2,4-thiadiazolidine-3-thione] yielded an IC50 in experiment [1] of 10 µM.
In experiment [1], `CCn1c(=S)n(C)s/c1=N\c1cccnc1` [(5Z)-4-ethyl-2-methyl-5-(pyridin-3-ylimino)-1,2,4-thiadiazolidine-3-thione] had an IC50 of 10 µM.
In the case of `CCOC(=O)/N=c1\sn(C(=O)OCC)c(=S)n1-c1ccccc1` [ethyl (5Z)-5-[(ethoxycarbonyl)imino]-4-phenyl-3-sulfanylidene-1,2,4-thiadiazolidine-2-carboxylate], in experiment [1], the IC50 was 100 µM.
As to `CCn1sc(=O)n(Cc2ccccc2)c1=O`, the midpoint of inhibition in experiment [1] (pH 7.5), the IC50, lay at 7 µM.
On the same count and under the same terms, the result for `CCn1c(=O)sn(C2CCCCC2)c1=O` [2-Cyclohexyl-4-ethyl-1,2,4-thiadiazolidine-3,5-dione] reads 10 µM.
